From paper PMC10916551, “NNMT/1‐MNA Promote Cell‐Cycle Progression of Breast Cancer by Targeting UBC12/Cullin‐1‐Mediated Degradation of P27 Proteins” (Advanced Science, 2023)

Target: T1, UBC12 (Homo sapiens, UniProt P61081)
T1 construct: gene UBE2M; amine-coupled to CM5 chip
T1 sequence (P61081 1-183): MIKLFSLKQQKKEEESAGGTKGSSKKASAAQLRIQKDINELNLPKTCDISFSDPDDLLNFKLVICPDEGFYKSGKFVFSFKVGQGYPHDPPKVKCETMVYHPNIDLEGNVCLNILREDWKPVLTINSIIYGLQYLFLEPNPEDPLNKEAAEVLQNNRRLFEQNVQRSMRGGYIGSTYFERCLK
Test: SPR (Biacore T200), UBC12 immobilised on CM5 chip
Format: binding

- Kd: 168 nM
SMILES: C[n+]1cccc(C(N)=O)c1 [1-MNA]
